Data: PubChem BioAssay AID248 (DTP/NCI, 2004)
“And” between values parts separate entries of the source, which are not always exact repeats. Identical values can stand only once. Inconclusive results and toxic doses are left out. Cut-off read from the data, not from the text of the source: active = T/C of 150% or more; inactive = T/C below 125%.

System: L1210 leukemia ip in BDF1 mice, survival T/C
Test: NCI In Vivo Anticancer Drug Screen. Data for tumor model L1210 Leukemia (intraperitoneal) in B6D2F1 (BDF1) mice
Settings: endpoint: mean survival time, higher = longer survival
Summary of the method: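 In this screen, tumor-bearing mice given compound are compared to those given vehicle, and their survival values are reported as a treated-to-control quotient.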

[1] = dose: 100.0 mg/kg/injection, schedule: Q01DX009 (ip), vehicle: saline with Tween-80
[2] = dose: 100.0 mg/kg/injection, schedule: Q04DX003 (ip), vehicle: saline with Tween-80
[3] = dose: 200.0 mg/kg/injection, schedule: Q01DX009 (ip), vehicle: saline with Tween-80
[4] = dose: 200.0 mg/kg/injection, schedule: Q04DX003 (ip), vehicle: saline with Tween-80
[5] = dose: 400.0 mg/kg/injection, schedule: Q04DX003 (ip), vehicle: saline with Tween-80
[6] = dose: 100.0 mg/kg/injection, schedule: Q04DX003 (ip), vehicle: saline sonified
[7] = dose: 200.0 mg/kg/injection, schedule: Q04DX003 (ip), vehicle: saline sonified
[8] = dose: 400.0 mg/kg/injection, schedule: Q04DX003 (ip), vehicle: saline sonified
[9] = dose: 12.5 mg/kg/injection, schedule: Q04DX002 (ip), vehicle: saline
[10] = dose: 400.0 mg/kg/injection, schedule: Q01DX009 (ip), vehicle: saline with Tween-80
[11] = dose: 100.0 mg/kg/injection, schedule: Q01DX001 (ip), vehicle: carboxymethylcellulose (CMC)
[12] = dose: 200.0 mg/kg/injection, schedule: Q01DX001 (ip), vehicle: carboxymethylcellulose (CMC)
[13] = dose: 400.0 mg/kg/injection, schedule: Q01DX001 (ip), vehicle: carboxymethylcellulose (CMC)
[14] = dose: 50.0 mg/kg/injection, schedule: Q01DX001 (ip), vehicle: carboxymethylcellulose (CMC)
[15] = dose: 100.0 mg/kg/injection, schedule: Q04DX002 (ip), vehicle: Klucel (hydroxypropylcellulose) (HPC)
[16] = dose: 200.0 mg/kg/injection, schedule: Q04DX002 (ip), vehicle: Klucel (hydroxypropylcellulose) (HPC)
[17] = dose: 400.0 mg/kg/injection, schedule: Q04DX002 (ip), vehicle: Klucel (hydroxypropylcellulose) (HPC)
[18] = dose: 100.0 mg/kg/injection, schedule: Q01DX009 (ip), vehicle: Klucel (hydroxypropylcellulose) (HPC)
[19] = dose: 100.0 mg/kg/injection, schedule: Q04DX003 (ip), vehicle: Klucel (hydroxypropylcellulose) (HPC)
[20] = dose: 200.0 mg/kg/injection, schedule: Q01DX009 (ip), vehicle: Klucel (hydroxypropylcellulose) (HPC)
[21] = dose: 200.0 mg/kg/injection, schedule: Q04DX003 (ip), vehicle: Klucel (hydroxypropylcellulose) (HPC)
[22] = dose: 400.0 mg/kg/injection, schedule: Q04DX003 (ip), vehicle: Klucel (hydroxypropylcellulose) (HPC)
[23] = dose: 50.0 mg/kg/injection, schedule: Q04DX003 (ip), vehicle: Klucel (hydroxypropylcellulose) (HPC)
[24] = dose: 100.0 mg/kg/injection, schedule: Q01DX001 (ip), vehicle: saline
[25] = dose: 200.0 mg/kg/injection, schedule: Q01DX001 (ip), vehicle: saline
[26] = dose: 400.0 mg/kg/injection, schedule: Q01DX001 (ip), vehicle: saline

Measured: T/C

N#CCCC1CCCCC1=O (stereo unspecified)
inactive: dose: 75.0 mg/kg/injection, schedule: Q01DX001 (ip), vehicle: other 97 % of control | [1] 94 % of control | [2] 98 % of control | dose: 150.0 mg/kg/injection, schedule: Q01DX001 (ip), vehicle: other 100 % of control | [3] 96 % of control | [4] 96 % of control | dose: 300.0 mg/kg/injection, schedule: Q01DX001 (ip), vehicle: other 100 % of control | [5] 102 % of control

O=c1[nH]cn[nH]1
inactive: [6] 105 % of control | [7] 114 % of control | [8] 101 % of control

Nc1ncnc(N)c1NC(=O)c1ccc(OCCOc2ccccc2)c(Cl)c1
inactive: dose: 25.0 mg/kg/injection, schedule: Q04DX003 (ip), vehicle: saline with Tween-80 89 % of control | dose: 50.0 mg/kg/injection, schedule: Q04DX003 (ip), vehicle: saline with Tween-80 93 % of control | [2] 98 % of control

CCOC=Nc1c(C)c[n+]([O-])nc1OC
inactive: [9] 102 % of control | dose: 25.0 mg/kg/injection, schedule: Q04DX002 (ip), vehicle: saline 102 % of control | dose: 50.0 mg/kg/injection, schedule: Q04DX002 (ip), vehicle: saline 98 % of control

O=C(O)c1cccc(Br)c1.[Ni]
inactive: dose: 25.0 mg/kg/injection, schedule: Q04DX002 (ip), vehicle: Klucel (hydroxypropylcellulose) (HPC) 100 % of control | dose: 50.0 mg/kg/injection, schedule: Q04DX002 (ip), vehicle: Klucel (hydroxypropylcellulose) (HPC) 106 % of control

O=C(O)/C(=C\c1ccccc1[N+](=O)[O-])c1ccccc1Cl
inactive: [1] 106 % of control | [3] 98 % of control | [10] 95 % of control

CCCCNC(c1ccccc1)=[N+]1C(C)CCCC1C (stereo unspecified)
inactive: dose: 3.0 mg/kg/injection, schedule: Q04DX002 (ip), vehicle: saline 108 % of control | dose: 6.0 mg/kg/injection, schedule: Q04DX002 (ip), vehicle: saline 94 % of control | dose: 12.0 mg/kg/injection, schedule: Q04DX002 (ip), vehicle: saline 87 % of control | [9] 107 % of control

Nc1c(Cl)c(Cl)c2c(c1Cl)C(=O)c1cc(Cl)ccc1-2
inactive: [11] 97 % of control | [12] 108 % of control | [13] 105 % of control

O=C(O)CC/C(=N/OCc1cc2c(cc1Cl)OCO2)C(=O)O
inactive: [6] 108 % of control | [7] 93 % of control | [8] 91 % of control

O=C(N/N=C/c1ccccc1O)C(O)(c1ccccc1)c1ccccc1
inactive: [11] 101 % of control | [12] 97 % of control | [13] 97 % of control

COc1ccccc1CCO
inactive: [14] 86 % of control | [11] 98 % of control | [12] 98 % of control | [13] 98 % of control

CCN(CC)C(=S)[S][Sn]([c]1ccccc1)([c]1ccccc1)[c]1ccccc1
inactive: dose: 100.0 mg/kg/injection, schedule: Q01DX001 (ip), vehicle: steriod suspending solution 109 % of control | dose: 200.0 mg/kg/injection, schedule: Q01DX001 (ip), vehicle: steriod suspending solution 98 % of control | dose: 400.0 mg/kg/injection, schedule: Q01DX001 (ip), vehicle: steriod suspending solution 98 % of control

ClCCN(CCCl)c1ccc(C=Nc2cccc(Cl)c2)cc1
inactive: [14] 100 % of control | [11] 100 % of control | [12] 105 % of control | [13] 105 % of control

O=C(O)CCCc1ccc(Br)cc1
inactive: [2] 96 % of control | [4] 92 % of control | [5] 93 % of control

CCS(=O)(=O)c1ccc(NC(=O)OC2CCCCCC2)cc1
inactive: dose: 100.0 mg/kg/injection, schedule: Q01DX001 (ip), vehicle: other 91 % of control | dose: 200.0 mg/kg/injection, schedule: Q01DX001 (ip), vehicle: other 91 % of control | dose: 400.0 mg/kg/injection, schedule: Q01DX001 (ip), vehicle: other 93 % of control

COc1cc(C)ccc1OC(=O)Nc1ccccc1
inactive: [15] 109 % of control | [16] 113 % of control | [17] 106 % of control

OC1CCC2CCCC2C1 (stereo unspecified)
inactive: [18] 97 % of control | [19] 102 % of control | [20] 97 % of control | [21] 98 % of control | [22] 99 % of control

COC(=O)CSc1nc2ccccc2[nH]1
inactive: [15] 104 % of control | [16] 100 % of control | [17] 100 % of control

O=S1(=O)C=C(c2ccccc2)C(c2ccccc2)=C1
inactive: dose: 3.12 mg/kg/injection, schedule: Q01DX009 (ip), vehicle: saline with Tween-80 98 % of control | dose: 6.25 mg/kg/injection, schedule: Q01DX009 (ip), vehicle: saline with Tween-80 106 % of control | dose: 12.5 mg/kg/injection, schedule: Q01DX009 (ip), vehicle: saline with Tween-80 101 % of control | dose: 25.0 mg/kg/injection, schedule: Q01DX009 (ip), vehicle: saline with Tween-80 101 % of control and 108 % of control | dose: 25.0 mg/kg/injection, schedule: Q04DX003 (ip), vehicle: Klucel (hydroxypropylcellulose) (HPC) 95 % of control | dose: 50.0 mg/kg/injection, schedule: Q01DX009 (ip), vehicle: saline with Tween-80 95 % of control | [23] 102 % of control | [19] 118 % of control and 91 % of control

O=C1c2ccccc2C(C(O)(C(F)(F)F)C(F)(F)F)c2ccccc21
inactive: [2] 92 % of control | [4] 97 % of control

Cn1c(=O)c2[nH]c(CCC3CCCC3)nc2n(C)c1=O
inactive: dose: 50.0 mg/kg/injection, schedule: Q01DX001 (ip), vehicle: saline 98 % of control | [24] 96 % of control | [25] 96 % of control | [26] 101 % of control

CC(C)CCCCCCCCOC(=O)c1ccccc1C(=O)OCCCCCCCCC(C)C
inactive: [24] 98 % of control | [25] 103 % of control | [26] 103 % of control

Cc1ccc(OCC(O)CN2CCN(c3ccc(Cl)cc3)CC2)cc1 (stereo unspecified)
inactive: dose: 63.0 mg/kg/injection, schedule: Q01DX015 (ip), vehicle: carboxymethylcellulose (CMC) 95 % of control | [2] 91 % of control | dose: 125.0 mg/kg/injection, schedule: Q01DX015 (ip), vehicle: carboxymethylcellulose (CMC) 95 % of control | [4] 94 % of control | dose: 250.0 mg/kg/injection, schedule: Q01DX015 (ip), vehicle: carboxymethylcellulose (CMC) 95 % of control | [5] 89 % of control | dose: 500.0 mg/kg/injection, schedule: Q01DX015 (ip), vehicle: carboxymethylcellulose (CMC) 91 % of control | dose: 1000.0 mg/kg/injection, schedule: Q01DX015 (ip), vehicle: carboxymethylcellulose (CMC) 95 % of control

CCc1cccc2ccccc12
inactive: [23] 100 % of control | [18] 90 % of control | [19] 98 % of control | [20] 92 % of control | [21] 107 % of control | dose: 400.0 mg/kg/injection, schedule: Q01DX009 (ip), vehicle: Klucel (hydroxypropylcellulose) (HPC) 96 % of control | [22] 96 % of control

CNc1ccc(Nc2cc(S(=O)(=O)O)c(N)c3c2C(=O)c2ccccc2C3=O)cc1
inactive: [24] 110 % of control | [25] 98 % of control | [26] 93 % of control

CCC1(CC)COC(C)(C(=O)O)OC1
inactive: [1] 96 % of control and 95 % of control | [3] 89 % of control and 101 % of control | [10] 90 % of control
